# Entries after “also recorded” stand apart in the source; their conditions may differ.
# Experiments:
# MMR-proficient cells = assay: Cell proliferation with xCELLigence RTCA system, MMR-proficient cells; assay type: cell-based, human; conditions: 1, 3 and 10 μM olaparib, 48 hours
# Procedure: (§1) As MMR-deficient tumors are characterized by reduced activity of the DSB repair by HR pathway, it was hypothesized that these tumors, similar to BRCA1-deficient tumors (Farmer et al., 2005), can be selectively targeted by PARP inhibition. All eight MMR-deficient and four MMR-proficient cultures were dose-dependently (1, 3 and 10 μM) exposed to olaparib and effects on proliferation were assessed.
# Real-Time Cell Analyzer (RTCA) xCELLigence System (Roche Applied Science, Mannheim, Germany) was used to dynamically monitor cell proliferation rates. The system measures electrical impedance across microelectrodes on the bottom of tissue culture E-plates. The impedance measurement provides quantitative information about cell number, viability, morphology and adhesion. 5,000 cells/well were seeded on E-plate 16 (Roche) in 200 μl medium. […] Each treatment condition was measured in triplicate. Dynamic cell index values were monitored in five-minute intervals for 48 hours after treatments. […]
# Cell Proliferation: Real-Time Cell Analyzer (RTCA) xCELLigence System (Roche) was used to dynamically monitor cell proliferation rates. […] Each condition was measured in triplicate and all experiments were done in duplicate at different time points. Dynamic cell index values were monitored for 48 hours after treatment.
# [1] = tested on: MMR-deficient and MMR-proficient tumor cells; assay: γH2AX immunostaining (unrepaired DNA damage) after olaparib; assay type: cell-based, human; conditions: all cells regardless of MMR status
# Procedure: Primary tumor cultures and immunofluorescence: Nine primary endometrial and ovarian tumor cell cultures were established from tumors of the patients undergoing surgery. Primary tumor cell cultures were grown in RPMI1640 medium (GIBCO) supplemented with 20% FBS, 2 mM L-Glutamine, 100 U/ml penicillin, 100 μg/ml streptomycin, 1 μg/ml fungizone and 10 μg/ml gentamicin up to 20 passages. 25,000 cells/well were seeded on eight-well slides (Nunc) in 400 μl medium and grown for 24 hours. Following exposure to 0 or 10 μM olaparib, slides were rinsed in PBS, fixed in paraformaldehyde at 37° C., permeabilized with 0.1% Triton X-100 and blocked with BSA. […] The percentage of foci positive cells (>5 foci per nucleus) was determined on a Zeiss LSM 510 inverted confocal microscope using Plan-Neofluar 40×/1.3 oil immersion objective. For each experiment, at least 100 nuclei were analyzed.
# The degree of unrepaired DNA damage upon olaparib treatment was measured with γH2AX immunofluorescence. […]
# γH2AX and RAD51 foci were visualized with Zeiss LSM 510 inverted confocal microscope using Plan-Neofluar 40x/1.3 oil immersion objective and excitation wavelengths of 488 and 750 nm (Chameleon coherent two-photon laser). […] Nuclei with >5 foci were scored positive, and at least 100 nuclei were counted per culture and per condition.
# MMR-deficient cells = assay: Cell proliferation with xCELLigence RTCA system, MMR-deficient cells; assay type: cell-based, human; conditions: for decrease in proliferation versus untreated cells: average of 8 MMR-deficient cultures, 48 hours
# Procedure: as §1
# Real-Time Cell Analyzer (RTCA) xCELLigence System (Roche Applied Science, Mannheim, Germany) was used to dynamically monitor cell proliferation rates. The system measures electrical impedance across microelectrodes on the bottom of tissue culture E-plates. The impedance measurement provides quantitative information about cell number, viability, morphology and adhesion. 5,000 cells/well were seeded on E-plate 16 (Roche) in 200 μl medium. 24 hours post-seeding, cells were treated with olaparib to the desired final concentration (1, 3, 10 μM olaparib). The final DMSO percent in all wells was 0.1%. Each treatment condition was measured in triplicate. Dynamic cell index values were monitored in five-minute intervals for 48 hours after treatments. Cell index values were normalized to the vehicle-treated control for each cell.
# Cell Proliferation: Real-Time Cell Analyzer (RTCA) xCELLigence System (Roche) was used to dynamically monitor cell proliferation rates. 5,000 cells/well were seeded on E-plate 16 (Roche) in 200 μl medium. Olaparib (AZD-2281, JS Research Chemicals Trading) was dissolved in DMSO. 24 hours post-seeding, cells were treated with olaparib ([…]). Each condition was measured in triplicate and all experiments were done in duplicate at different time points. Dynamic cell index values were monitored for 48 hours after treatment.
# BRCA1-deficient cells = conditions: 3 μM olaparib; cited from earlier work
# BRCA2-deficient cells = conditions: 10 μM olaparib; cited from earlier work
# [2] = tested on: MMR-proficient primary tumor cultures and cancer cell lines; assay: RAD51 immunostaining (RAD51 foci formation) after olaparib, MMR-proficient cells; assay type: cell-based, human; conditions: 10 μM olaparib, 24 hours, average of 4 MMR-proficient cultures
# Procedure: (§2) To investigate whether the DSB repair by HR pathway is functionally inactivated in MMR-deficient tumors, it was assessed the DSB repair activity in eight MMR-deficient and four MMR-proficient primary tumor cultures and cancer cell lines. The MMR status of these cells was analyzed using the 56-marker panel and confirmed by the Bethesda Panel.
# (§3) Nine primary endometrial and ovarian tumor cell cultures were established from patients undergoing surgery at the Division of Gynecologic Oncology, University Hospitals Gasthuisberg, Leuven (Belgium). Only after providing informed consent, patients were included in the study. The following protocol was used to generate primary tumor cultures. First, tumor samples were placed into sterile RPMI medium supplemented with Penicillin/Streptomycin (1000 U/ml) and Fungizone (0.5 μg/ml) (all from Life Technologies) for transport from the surgery room to the cell culture laboratory. […]
# (§4) Primary tumor cell cultures were grown in RPMI Medium 1640 (Gibco) supplemented with 20% fetal bovine serum, 2 mM L-Glutamine, 100 U/ml of penicillin, 100 μg/ml of streptomycin, 1 μg/ml of fungizone and 10 μg/ml of gentamicin up to 20 passages. […] They were also routinely monitored for Mycoplasma contamination and no Mycoplasma growth has been detected. […]
# [3] = tested on: MMR-deficient primary tumor cultures and cancer cell lines; assay: RAD51 immunostaining (RAD51 foci formation) after olaparib, MMR-deficient cells; assay type: cell-based, human; conditions: 10 μM olaparib, 24 hours, average of 8 MMR-deficient cultures
# Procedure: as §2, §3, §4
structure (smiles),measurement,setting,value
O=C(c1cc(Cc2n[nH]c(=O)c3ccccc23)ccc1F)N1CCN(C(=O)C2CC2)CC1 [olaparib],effect on proliferation (in words),MMR-proficient cells,no effect; also recorded: did not respond to olaparib
same,increase in number of γH2AX foci compared to baseline,[1]; 10 μM olaparib,4-6 fold
same,number of γH2AX foci (in words),[1]; olaparib,drastically increased
same,decrease in proliferation versus untreated cells,MMR-deficient cells; 1 μM olaparib,15%
same,decrease in proliferation versus untreated cells,MMR-deficient cells; 3 μM olaparib,20%
same,decrease in proliferation versus untreated cells,MMR-deficient cells; 10 μM olaparib,42%
same,effect on proliferation (in words),"MMR-deficient cells; 1, 3 and 10 μM olaparib, MMR-deficient cells",dose-dependent decrease in proliferation
same,decrease in viability,BRCA1-deficient cells,78%
same,decrease in viability,BRCA2-deficient cells,91%
same,cells showing RAD51 foci formation (>5 foci per nucleus),[2],37±4%
same,cells showing RAD51 foci formation (>5 foci per nucleus),[3],19±3%

# Source: patent US10633707B2, “Markers for detecting microsatellite instability in cancer and determining synthetic lethality with inhibition of the DNA base excision repair pathway” (VIB VZW, priority 2012, dated 2020)
